Legend:
[1] = system: Vascular Endothelial Growth Factor A (VEGFA); assay: Differential gene expression in keratinocytes; type: cell-based; settings: normal human epidermal keratinocytes, 1% DHK
From the text: (§1) Log 2fold changes are detailed in FIG. 4. Table 13, provided below, highlights certain examples of differential gene expression in normal human epidermal keratinocytes treated with compositions comprising 1% DHK.

Thrombospondin 4 (THBS4) = assay: Differential gene expression in keratinocytes; type: cell-based; settings: normal human epidermal keratinocytes, 1% DHK
From the text: as §1

[2] = system: Transient Receptor Potential Cation Channel Subfamily (TRPV6); assay: Differential gene expression in keratinocytes; type: cell-based; settings: normal human epidermal keratinocytes, 1% DHK
From the text: as §1

Interleukin 6 (IL6) = assay: Differential gene expression in keratinocytes; type: cell-based; settings: normal human epidermal keratinocytes, 1% DHK
From the text: as §1

[3] = system: Fibroblast Growth Factor 2 (FGF2); assay: Differential gene expression in keratinocytes; type: cell-based; settings: normal human epidermal keratinocytes, 1% DHK
From the text: as §1

[4] = system: Tumor Necrosis Factor (TNF); assay: Differential gene expression in keratinocytes; type: cell-based; settings: normal human epidermal keratinocytes, 1% DHK
From the text: as §1

Interleukin 24 (IL24) = assay: Differential gene expression in keratinocytes; type: cell-based; settings: normal human epidermal keratinocytes, 1% DHK
From the text: as §1

[5] = system: C-X-C Motif Chemokine Ligand 1 (CXCL1); assay: Differential gene expression in keratinocytes; type: cell-based; settings: normal human epidermal keratinocytes, 1% DHK
From the text: as §1

[6] = system: C-X-C Motif Chemokine Ligand 2 (CXCL2); assay: Differential gene expression in keratinocytes; type: cell-based; settings: normal human epidermal keratinocytes, 1% DHK
From the text: as §1

[7] = mice; Liang et al. 2020; cited from earlier work
[8] = Venditti et al. 2013; Liang et al. 2020; cited from earlier work
Elastin = assay: Anti-aging: elastin ELISA in hDF; type: cell-based, Human
Experimental: Human dermal fibroblasts (hDF) were treated with test article of interest. Elastin was quantified by ELISA.

glycation = assay: Glycation inhibition assay; type: biochemical
Experimental: The assay was conducted to evaluate the glycation inhibition activity of compositions comprising dihydrokaempferol.
Nonenzymatic glycation can occur when glucose reacts with proteins, forming a Schiff base intermediate that subsequently undergoes Amadori rearrangement to form glycosylated proteins, when they react with skin proteins to form Advanced Glycation End products (AGE). AGE formation can result in loss of skin elasticity and impaired cellular function. The glycation inhibition ability of a compound is measured by change in fluorescence at excitation/emission of 360 nm/420 nm relative to solvent control.

macrophage cell lines = macrophage cell lines and skin; Venditti et al. 2013; Lee et al. 2013; cited from earlier work
[9] = Solubility of dihydrokaempferol in various solvents; type: physicochemical
From the text: Table 1, provided below, provides solubility data for dihydrokaempferol in various solvents.

[10] = DPPH antioxidant activity assay (organic medium); type: biochemical
From the text: The 2,2-diphenyl-1-picrylhydrazyl (DPPH) antioxidant assay is designed to evaluate the antioxidant activity of compositions comprising dihydrokaempferol in an organic medium. 2,2-diphenyl-1-picrylhydrazyl (DPPH) is a stable free radical used to evaluate free radical scavenging capacity of a material. In the presence of an antioxidant DPPH is reduced, resulting in the formation of a colorless solution. Reduction of absorbance at 517 nm is standardized to solvent control as an indication of DPPH scavenging.

[11] = Venditti et al. 2013; Liang et al. 2020; cited from earlier work; remark: listed apart in the source
Sirtuin-1 = settings: reduces oxidative stress and inflammatory response; Zhang et al. 2021; cited from earlier work
[12] = Dihydrokaempferol stability at 70° C. in various solvents; type: physicochemical
Experimental: Table 2, provided below, provides stability data for compositions comprising dihydrokaempferol in various solvents, when stored at 70° C. for up to one (1) month.

[13] = target: T1, human neutrophil elastase (Homo sapiens, UniProt P08246); assay: Elastase enzyme inhibition; type: biochemical
T1 sequence (P08246 30-267): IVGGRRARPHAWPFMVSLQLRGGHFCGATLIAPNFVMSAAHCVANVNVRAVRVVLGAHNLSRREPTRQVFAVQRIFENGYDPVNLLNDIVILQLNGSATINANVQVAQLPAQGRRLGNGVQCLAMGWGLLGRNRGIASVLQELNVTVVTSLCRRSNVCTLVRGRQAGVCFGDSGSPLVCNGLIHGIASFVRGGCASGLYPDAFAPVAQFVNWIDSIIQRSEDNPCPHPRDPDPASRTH
Experimental: The assay was conducted to evaluate the elastase enzyme inhibition activity of compositions comprising dihydrokaempferol.
Neutrophil infiltration and neutrophil elastase are both increased in the skin in response to UV stress. […] Therefore, inhibition of this enzyme, particularly in combination with antioxidant activity, is effective in delaying wrinkle development and aiding in maintaining skin integrity. This assay is measures release of 4-nitroaniline from an Me-Suc-Ala-Ala-Pro-Val-pNA by human neutrophil elastase and can be quantified at 405 nm by comparing to solvent control.

[14] = ABTS antioxidant assay (aqueous medium); type: biochemical
From the text: The 2,2′-Azinobis [3-ethylbenzothiazoline-6-sulfonic acid]-diammonium salt (ABTS) antioxidant assay is designed to evaluate the antioxidant activity of compositions comprising dihydrokaempferol in an aqueous medium.
ABTS+ solution is generated as a free radical and used to measure relative ability of a compound to scavenge free radicals. Reduction of the absorbance at 734 nm was standardized to solvent control as an indication of ABTS+ scavenging.

[15] = system: Human dermal fibroblasts (hDF); assay: Wound healing: fibroblast regrowth after insert removal, image analysis; type: cell-based; settings: 0.003% DHK
Experimental: Human dermal fibroblasts (hDF) were plated in the presence of a growth-preventing insert. The insert was subsequently removed and regrowth measured by image analysis.

PPAR-72 = settings: stimulates glucose uptake; Zhang et al. 2011; cited from earlier work
Filaggrin = assay: Skin barrier marker by flow cytometry in hDF; type: cell-based, Human; settings: 0.003% DHK
Experimental: (§2) Human dermal fibroblasts (hDF) were treated with test article of interest. Barrier markers of interest were measured by flow cytometry.

Loricrin = assay: Skin barrier marker by flow cytometry in hDF; type: cell-based, Human; settings: 0.003% DHK
Experimental: as §2

IL-6 = assay: Anti-inflammatory activity: IL-6 ELISA in LPS/Poly:IC stressed keratinocytes; type: cell-based, Human; settings: for % Reduction vs Treated / IL-6: stimulated NHEK, 24 hours
Experimental: Normal Human Epidermal Keratinocytes (NHEK) were stressed with a cocktail of lipopolysaccharide (LPS) and Polyinosinic-polycytidylic acid sodium salt (Poly:IC), external aggressors capable of inducing an inflammatory response. Stressed cells were subsequently treated with test articles and incubated for 24 hours. Reduction in inflammatory markers was measured by ELISA and % reduction calculated relative to solvent control.

[16] = Isopropyl lauroyl sarcosinate, 1 month
[17] = Isopropyl lauroyl sarcosinate, 1 week

SMILES: O=C1c2c(O)cc(O)cc2O[C@H](c2ccc(O)cc2)[C@H]1O [dihydrokaempferol]
- Log2 Fold Change [1]: 2.32
- Log2 Fold Change (Thrombospondin 4 (THBS4)): 3.30
- Log2 Fold Change [2]: 2.19
- Log2 Fold Change (Interleukin 6 (IL6)): −5.54
- Log2 Fold Change [3]: 1.82
- Log2 Fold Change [4]: −3.39
- Log2 Fold Change (Interleukin 24 (IL24)): −2.01
- Log2 Fold Change [5]: −1.91
- Log2 Fold Change [6]: −4.19
- Treatment of severe acute pancreatitis [7]: treatment for severe acute pancreatitis
- Function as anti-diabetic [8]: anti-diabetic
- Elastin (Elastin; 0.001% DHK): 23.1 ng/mL
- Elastin (Elastin; 0.003% DHK): 16.6 ng/mL
- Elastin (Elastin; 0.005% DHK): 15.9 ng/mL
- Lowest concentration inhibiting glycation (glycation): 0.004 % w/w
- % Glycation Inhibition (glycation; 0.004 % w/w): 25.05%
- % Glycation Inhibition (glycation; 0.011 % w/w): 42.23%
- % Glycation Inhibition (glycation; 0.033 % w/w): 64.87%
- % Glycation Inhibition (glycation; 0.100 % w/w): 82.42%
- IC50 glycation inhibition (glycation; calculated): 0.016 % w/w
- Anti-inflammatory activity (macrophage cell lines): anti-inflammatory activity
- Solubility (% w/w) ([9]; Solvent: 1,2 Propanediol): 0.00 % w/w
- Solubility (% w/w) ([9]; Solvent: 1,2 heptanediol): 5.00 % w/w
- Solubility (% w/w) ([9]; Solvent: 3-methyl-1,3-butanediol): 0.00 % w/w
- Solubility (% w/w) ([9]; Solvent: Butylene glycol): 5.00 % w/w
- Solubility (% w/w) ([9]; Solvent: C9-12 Alkane): 0.00 % w/w
- Solubility (% w/w) ([9]; Solvent: C15-19 Alkane): 0.00 % w/w
- Solubility (% w/w) ([9]; Solvent: Capric/Caprylic Triglyceride): 0.00 % w/w
- Solubility (% w/w) ([9]; Solvent: Di(propylene glycol) dibenzoate): 0.00 % w/w
- Solubility (% w/w) ([9]; Solvent: Dimethyl Isosoribide): 20.00 % w/w
- Solubility (% w/w) ([9]; Solvent: Ethoxydiglycol): 25.00 % w/w
- Solubility (% w/w) ([9]; Solvent: Isoamyl Laurate): 0.00 % w/w
- Solubility (% w/w) ([9]; Solvent: Isopentyldiol): 5.00 % w/w
- Solubility (% w/w) ([9]; Solvent: Isopropyl Lauroyl sarcosinate): 10.00 % w/w
- Solubility (% w/w) ([9]; Solvent: Isopropyl Myristate): 0.00 % w/w
- Solubility (% w/w) ([9]; Solvent: Jojoba Oil): 0.00 % w/w
- Solubility (% w/w) ([9]; Solvent: Neopentyl Glycol Dihexanoate): 0.00 % w/w
- Solubility (% w/w) ([9]; Solvent: Oleyl Alcohol): 0.00 % w/w
- Solubility (% w/w) ([9]; Solvent: Pentylene glycol): 5.00 % w/w
- Solubility (% w/w) ([9]; Solvent: Phenylpropanol): 0.00 % w/w
- Solubility (% w/w) ([9]; Solvent: Propanediol): 5.00 % w/w
- Solubility (% w/w) ([9]; Solvent: Squalene): 0.00 % w/w
- Solubility (% w/w) ([9]; Solvent: Sunflower Oil): 0.00 % w/w
- Solubility (% w/w) ([9]; Solvent: Tri C12-13 alkyl citrate): 0.00 % w/w
- Solubility (% w/w) ([9]; Solvent: Tributyl citrate): 0.00 % w/w
- Solubility (% w/w) ([9]; Solvent: Tributyl-O-acetylcitrate): 0.00 % w/w
- Solubility (% w/w) ([9]; Solvent: Triethyl Citrate): 0.00 % w/w
- Solubility (% w/w) ([9]; Solvent: Triethyl-O-acetylcitrate): 0.00 % w/w
- Solubility (% w/w) ([9]; Solvent: Triisostearin): 0.00 % w/w
- Solubility in words ([9]; in Helianthus Annuus (Sunflower) Seed Oil): insoluble
- Solubility in words ([9]; in a number of other commonly used solvents): minimally soluble
- Solubility in words ([9]; in capric/caprylic triglyceride): minimally soluble
- Solubility in words ([9]; in dimethyl isosorbide, ethoxydiglycol, glycol, isopropyl lauroyl sarcosinate, pentylene glycol, 1,2 hexanediol, propanediol, butylene glycol, phenylpropanol, isopentyldiol, 1,2 heptanediol): soluble
- Solubility in words ([9]; in isopropyl myristate): minimally soluble
- Solubility in words ([9]; in oil): poorly soluble or insoluble
- Solubility in words ([9]; in water): poorly soluble or insoluble
- % Radical Inhibition ([10]; DPPH, 0.016 % w/w): 16.54%
- % Radical Inhibition ([10]; DPPH, 0.031 % w/w): 31.00%
- % Radical Inhibition ([10]; DPPH, 0.063 % w/w): 61.12%
- IC50 antioxidant activity ([10]; DPPH, organic solvent system, calculated): 0.05 % w/w
- Lowest concentration with antioxidant activity ([10]; organic solvent systems): 0.016 % w/w
- Function as antioxidant [11]: antioxidant
- Effect on Sirtuin-1 (Sirtuin-1): upregulates
- % remaining ([12]; Dimethyl isosorbide, 1 month): 91%
- Concentration (% w/w) 1 month ([12]; Dimethyl isosorbide, 1 month): 6.04 % w/w
- % remaining ([12]; Dimethyl isosorbide, 1 week): 95%
- Concentration (% w/w) 1 week ([12]; Dimethyl isosorbide, 1 week): 6.33 % w/w
- Concentration (% w/w) Initial ([12]; Dimethyl isosorbide): 6.66 % w/w
- % remaining ([12]; Ethoxydiglycol, 1 month): 84%
- Concentration (% w/w) 1 month ([12]; Ethoxydiglycol, 1 month): 6.54 % w/w
- % remaining ([12]; Ethoxydiglycol, 1 week): 94%
- Concentration (% w/w) 1 week ([12]; Ethoxydiglycol, 1 week): 7.27 % w/w
- Concentration (% w/w) Initial ([12]; Ethoxydiglycol): 7.74 % w/w
- % remaining [12, 16]: 92%
- Concentration (% w/w) 1 month [12, 16]: 7.71 % w/w
- % remaining [12, 17]: 97%
- Concentration (% w/w) 1 week [12, 17]: 8.14 % w/w
- Concentration (% w/w) Initial ([12]; Isopropyl lauroyl sarcosinate): 8.40 % w/w
- Lowest concentration inhibiting elastase enzyme activity [13]: 0.1 % w/w
- inhibition at 0.02 % strength ([13]; 0.020 % w/w): 0%
- inhibition at 0.1 % strength ([13]; 0.100 % w/w): 29.6%
- inhibition at 0.5 % strength ([13]; 0.500 % w/w): 81.5%
- IC50 elastase enzyme inhibition ([13]; calculated): 0.13 % w/w
- % Radical Inhibition ([14]; ABTS, 0.00625 % w/w): 32.55%
- % Radical Inhibition ([14]; ABTS, 0.0125 % w/w): 42.49%
- % Radical Inhibition ([14]; ABTS, 0.025 % w/w): 56.17%
- IC50 antioxidant activity ([14]; ABTS, aqueous solvent system, calculated): 0.0143 % w/w
- Lowest concentration with antioxidant activity ([14]; aqueous systems): 0.00625 % w/w
- Closure Rate 24 hr ([15]; 24 hr): 4.17
- Closure Rate 48 hr ([15]; 48 hr): 9.40
- Effect on PPAR-72 expression (PPAR-72): increases
- % Total Population (Filaggrin): 42.2%
- % Total Population (Loricrin): 19.3%
- % Reduction vs Treated (IL-6; 0.001% DHK): 31.32%
- IL-6 (IL-6; 0.001% DHK): 838.7 pg/mL
- % Reduction vs Treated (IL-6; 0.002% DHK): 43.70%
- IL-6 (IL-6; 0.002% DHK): 687.5 pg/mL
- % Reduction vs Treated (IL-6; 0.003% DHK): 64.79%
- IL-6 (IL-6; 0.003% DHK): 430.0 pg/mL
- Reduction of inflammatory marker IL-6 (up to) (IL-6; in vitro, summary of Table 9): up to 64.79%

Reference: patent publication US20250057748A1, “FORMULATIONS OF DIHYDROKAEMPFEROL” (DEBUT BIOTECHNOLOGY, INC., priority 2023, published 2025)
